# According to patent US20260027116A1, “Methods of Treating Chronic Graft-Versus-Host Disease Following Allogeneic Hematopoietic Stem Cell Transplantation” (Kadmon Corporation, LLC, priority 2022, published 2026):
# Tests used:
# [1] = tested on: cGVHD symptom burden; experiment: Example 1: Lee Symptom Scale (LSS) score; type: in vivo, human
# Experimental: Lee Symptom Scale (LSS) summary score measures the effect on patients' functioning and well-being. The Lee Symptom Scale is a 30-item scale developed to measure the symptoms of cGVHD and is described in Lec S J, Cook E F, Soiffer R, Antin J H. Development and validation of a scale to measure symptoms of chronic graft-versushost disease. Biol Blood Marrow Transplant 2002; 8:444-452.
# All responses were assessed by the investigators.
# Change From Baseline in Overall Score on Lee cGvHD Symptom Scale at Specified Time Points. Lee cGVHD symptom scale, a patient-reported symptom scale used to measure symptom burden and has 7 subscales (Skin, Eyes and Mouth, Breathing, Eating and Digestion, Muscles and Joints, Energy, and Mental and Emotional) with ratings as follows: 0—Not at all, 1—Slightly, 2—Moderately, 3—Quite a bit, 4—Extremely, with lower values representing better outcome. Score for each subscale was normalized to a score ranged from 0 to 100, where higher score=worse symptoms. An overall score was calculated as average of these 7 subscales. EOT visit was performed within 3 days after the participant's last dose of study drug. Baseline value was defined as valid and last non-missing value obtained within 28 days prior to participant receiving first study medication. […] Analysis was performed on mITT population. Here, ‘number analyzed’=participants with available data for each specified category. Here, ‘0’ in the number analyzed field signifies that none of the participants were available for the analysis at the specified time points.
# [2] = molecular target: T1, UGT1A9 (Homo sapiens, UniProt O60656); experiment: metabolism in vitro; type: in vitro ADME
# T1 sequence (O60656 26-530): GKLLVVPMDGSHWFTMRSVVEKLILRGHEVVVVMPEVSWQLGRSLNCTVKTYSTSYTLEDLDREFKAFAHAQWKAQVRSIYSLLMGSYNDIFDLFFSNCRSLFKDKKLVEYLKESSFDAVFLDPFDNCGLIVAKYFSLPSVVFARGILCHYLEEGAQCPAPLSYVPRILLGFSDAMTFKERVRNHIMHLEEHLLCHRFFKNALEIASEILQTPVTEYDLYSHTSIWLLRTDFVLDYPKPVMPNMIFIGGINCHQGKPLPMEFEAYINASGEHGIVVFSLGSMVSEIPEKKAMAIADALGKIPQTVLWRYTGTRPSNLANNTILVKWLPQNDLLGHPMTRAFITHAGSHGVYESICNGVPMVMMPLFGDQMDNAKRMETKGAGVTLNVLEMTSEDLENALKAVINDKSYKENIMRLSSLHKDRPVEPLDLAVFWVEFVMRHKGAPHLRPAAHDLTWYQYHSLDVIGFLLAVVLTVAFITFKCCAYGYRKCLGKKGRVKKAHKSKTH
smiles,measurement,setting,value
"CC(C)NC(=O)COc1cccc(-c2nc(Nc3ccc4[nH]ncc4c3)c3ccccc3n2)c1 [Belumosudil, 2-{3-[4-(1H-indazol-5-ylamino)-2-quinazolinyl]phenoxy}-N-(propan-2-yl) acetamide]","Change From Baseline in Overall Score on Lee cGvHD Symptom Scale, Mean (Standard Deviation)","[1]; Cohort 2: 200 mg BID, Cycle 10, Day 1",−2.7 (6.1) score on a scale
same,"Change From Baseline in Overall Score on Lee cGvHD Symptom Scale, Mean (Standard Deviation)","[1]; Cohort 2: 200 mg BID, Cycle 11, Day 1",−5.5 (6.0) score on a scale
same,"Change From Baseline in Overall Score on Lee cGvHD Symptom Scale, Mean (Standard Deviation)","[1]; Cohort 2: 200 mg BID, Cycle 12, Day 1",−7.6 (7.7) score on a scale
same,"Change From Baseline in Overall Score on Lee cGvHD Symptom Scale, Mean (Standard Deviation)","[1]; Cohort 2: 200 mg BID, Cycle 13, Day 1",−5.9 (8.8) score on a scale
same,"Change From Baseline in Overall Score on Lee cGvHD Symptom Scale, Mean (Standard Deviation)","[1]; Cohort 2: 200 mg BID, Cycle 14, Day 1",−5.0 (7.3) score on a scale
same,"Change From Baseline in Overall Score on Lee cGvHD Symptom Scale, Mean (Standard Deviation)","[1]; Cohort 2: 200 mg BID, Cycle 15, Day 1",−6.8 (7.0) score on a scale
same,"Change From Baseline in Overall Score on Lee cGvHD Symptom Scale, Mean (Standard Deviation)","[1]; Cohort 2: 200 mg BID, Cycle 16, Day 1",−6.9 (7.6) score on a scale
same,"Change From Baseline in Overall Score on Lee cGvHD Symptom Scale, Mean (Standard Deviation)","[1]; Cohort 2: 200 mg BID, Cycle 27, Day 1",−13.2 (6.6) score on a scale
same,"Change From Baseline in Overall Score on Lee cGvHD Symptom Scale, Mean (Standard Deviation)","[1]; Cohort 2: 200 mg BID, Cycle 29, Day 1",−11.0 (7.3) score on a scale
same,"Change From Baseline in Overall Score on Lee cGvHD Symptom Scale, Mean (Standard Deviation)","[1]; Cohort 2: 200 mg BID, Cycle 31, Day 1",−15.6 (4.3) score on a scale
same,"Change From Baseline in Overall Score on Lee cGvHD Symptom Scale, Mean (Standard Deviation)","[1]; Cohort 2: 200 mg BID, Cycle 33, Day 1",−13.5 (9.0) score on a scale
same,"Change From Baseline in Overall Score on Lee cGvHD Symptom Scale, Mean (Standard Deviation)","[1]; Cohort 2: 200 mg BID, Cycle 35, Day 1",−11.0 (12.4) score on a scale
same,"Change From Baseline in Overall Score on Lee cGvHD Symptom Scale, Mean (Standard Deviation)","[1]; Cohort 2: 200 mg BID, Cycle 37, Day 1",−13.6 (8.1) score on a scale
same,"Change From Baseline in Overall Score on Lee cGvHD Symptom Scale, Mean (Standard Deviation)","[1]; Cohort 2: 200 mg BID, Cycle 39, Day 1",−14.3 (8.5) score on a scale
same,"Change From Baseline in Overall Score on Lee cGvHD Symptom Scale, Mean (Standard Deviation)","[1]; Cohort 2: 200 mg BID, Cycle 41, Day 1",−19.3 (—) score on a scale
same,"Change From Baseline in Overall Score on Lee cGvHD Symptom Scale, Mean (Standard Deviation)","[1]; Cohort 2: 200 mg BID, Cycle 43, Day 1",−19.9 (—) score on a scale
same,"Change From Baseline in Overall Score on Lee cGvHD Symptom Scale, Mean (Standard Deviation)","[1]; Cohort 2: 200 mg BID, Cycle 47, Day 1",−16.8 (—) score on a scale
same,"Change From Baseline in Overall Score on Lee cGvHD Symptom Scale, Mean (Standard Deviation)","[1]; Cohort 2: 200 mg BID, Cycle 49, Day 1",−15.4 (—) score on a scale
same,"Change From Baseline in Overall Score on Lee cGvHD Symptom Scale, Mean (Standard Deviation)","[1]; Cohort 2: 200 mg BID, EOT",−2.4 (10.9) score on a scale
same,"LSS improvement, nonresponder, n/N",[1]; Cohort 3 400 mg QD,2/8
same,"LSS improvement, responder, n/N",[1]; Cohort 3 400 mg QD,9/13
same,"Change From Baseline in Overall Score on Lee cGvHD Symptom Scale, Mean (Standard Deviation)","[1]; Cohort 3: 400 mg QD, Cycle 2, Day 1",−5.2 (6.3) score on a scale
same,"Change From Baseline in Overall Score on Lee cGvHD Symptom Scale, Mean (Standard Deviation)","[1]; Cohort 3: 400 mg QD, Cycle 3, Day 1",−4.3 (8.2) score on a scale
same,"Change From Baseline in Overall Score on Lee cGvHD Symptom Scale, Mean (Standard Deviation)","[1]; Cohort 3: 400 mg QD, Cycle 4, Day 1",−2.7 (8.2) score on a scale
same,"Change From Baseline in Overall Score on Lee cGvHD Symptom Scale, Mean (Standard Deviation)","[1]; Cohort 3: 400 mg QD, Cycle 5, Day 1",−0.5 (10.8) score on a scale
same,"Change From Baseline in Overall Score on Lee cGvHD Symptom Scale, Mean (Standard Deviation)","[1]; Cohort 3: 400 mg QD, Cycle 6, Day 1",−0.8 (9.3) score on a scale
same,"Change From Baseline in Overall Score on Lee cGvHD Symptom Scale, Mean (Standard Deviation)","[1]; Cohort 3: 400 mg QD, Cycle 7, Day 1",−2.0 (12.3) score on a scale
same,"Change From Baseline in Overall Score on Lee cGvHD Symptom Scale, Mean (Standard Deviation)","[1]; Cohort 3: 400 mg QD, Cycle 8, Day 1",−2.9 (10.9) score on a scale
same,"Change From Baseline in Overall Score on Lee cGvHD Symptom Scale, Mean (Standard Deviation)","[1]; Cohort 3: 400 mg QD, Cycle 9, Day 1",−3.6 (10.2) score on a scale
same,"Change From Baseline in Overall Score on Lee cGvHD Symptom Scale, Mean (Standard Deviation)","[1]; Cohort 3: 400 mg QD, Cycle 10, Day 1",−3.7 (9.9) score on a scale
same,"Change From Baseline in Overall Score on Lee cGvHD Symptom Scale, Mean (Standard Deviation)","[1]; Cohort 3: 400 mg QD, Cycle 11, Day 1",−4.5 (6.1) score on a scale
same,"Change From Baseline in Overall Score on Lee cGvHD Symptom Scale, Mean (Standard Deviation)","[1]; Cohort 3: 400 mg QD, Cycle 12, Day 1",−2.8 (6.0) score on a scale
same,"Change From Baseline in Overall Score on Lee cGvHD Symptom Scale, Mean (Standard Deviation)","[1]; Cohort 3: 400 mg QD, Cycle 13, Day 1",−0.6 (7.1) score on a scale
same,"Change From Baseline in Overall Score on Lee cGvHD Symptom Scale, Mean (Standard Deviation)","[1]; Cohort 3: 400 mg QD, Cycle 14, Day 1",−1.5 (7.7) score on a scale
same,"Change From Baseline in Overall Score on Lee cGvHD Symptom Scale, Mean (Standard Deviation)","[1]; Cohort 3: 400 mg QD, Cycle 15, Day 1",−3.2 (8.2) score on a scale
same,"Change From Baseline in Overall Score on Lee cGvHD Symptom Scale, Mean (Standard Deviation)","[1]; Cohort 3: 400 mg QD, Cycle 16, Day 1",1.9 (7.9) score on a scale
same,"Change From Baseline in Overall Score on Lee cGvHD Symptom Scale, Mean (Standard Deviation)","[1]; Cohort 3: 400 mg QD, Cycle 27, Day 1",−6.0 (9.6) score on a scale
same,"Change From Baseline in Overall Score on Lee cGvHD Symptom Scale, Mean (Standard Deviation)","[1]; Cohort 3: 400 mg QD, Cycle 28, Day 1",2.6 (—) score on a scale
same,"Change From Baseline in Overall Score on Lee cGvHD Symptom Scale, Mean (Standard Deviation)","[1]; Cohort 3: 400 mg QD, Cycle 29, Day 1",−3.7 (13.0) score on a scale
same,"Change From Baseline in Overall Score on Lee cGvHD Symptom Scale, Mean (Standard Deviation)","[1]; Cohort 3: 400 mg QD, Cycle 31, Day 1",−12.9 (—) score on a scale
same,"Change From Baseline in Overall Score on Lee cGvHD Symptom Scale, Mean (Standard Deviation)","[1]; Cohort 3: 400 mg QD, Cycle 33, Day 1",−12.9 (—) score on a scale
same,"Change From Baseline in Overall Score on Lee cGvHD Symptom Scale, Mean (Standard Deviation)","[1]; Cohort 3: 400 mg QD, Cycle 35, Day 1",−12.9 (—) score on a scale
same,"Change From Baseline in Overall Score on Lee cGvHD Symptom Scale, Mean (Standard Deviation)","[1]; Cohort 3: 400 mg QD, Cycle 39, Day 1",−12.9 (—) score on a scale
same,"Change From Baseline in Overall Score on Lee cGvHD Symptom Scale, Mean (Standard Deviation)","[1]; Cohort 3: 400 mg QD, Cycle 41, Day 1",−12.9 (—) score on a scale
same,"Change From Baseline in Overall Score on Lee cGvHD Symptom Scale, Mean (Standard Deviation)","[1]; Cohort 3: 400 mg QD, Cycle 43, Day 1",−12.9 (—) score on a scale
same,"Change From Baseline in Overall Score on Lee cGvHD Symptom Scale, Mean (Standard Deviation)","[1]; Cohort 3: 400 mg QD, Cycle 45, Day 1",−12.3 (—) score on a scale
same,"Change From Baseline in Overall Score on Lee cGvHD Symptom Scale, Mean (Standard Deviation)","[1]; Cohort 3: 400 mg QD, Cycle 47, Day 1",−12.9 (—) score on a scale
same,"Change From Baseline in Overall Score on Lee cGvHD Symptom Scale, Mean (Standard Deviation)","[1]; Cohort 3: 400 mg QD, Cycle 49, Day 1",−14.3 (—) score on a scale
same,"Change From Baseline in Overall Score on Lee cGvHD Symptom Scale, Mean (Standard Deviation)","[1]; Cohort 3: 400 mg QD, Cycle 51, Day 1",−12.9 (—) score on a scale
same,"Change From Baseline in Overall Score on Lee cGvHD Symptom Scale, Mean (Standard Deviation)","[1]; Cohort 3: 400 mg QD, EOT",2.5 (11.9) score on a scale
same,"clinically meaningful LSS improvement on consecutive assessments, nonresponders",[1]; Example 1,32%
same,"clinically meaningful LSS improvement on consecutive assessments, responders",[1]; Example 1,37%
same,"LSS improvement, nonresponder, n/N","[1]; Total, N=54",7/19
same,"LSS improvement, responder, n/N","[1]; Total, N=54",20/35
same,"clinically significant LSS improvement, overall, % (95% CI)","[1]; Total, N=54",50%
same,metabolism by UGT1A9,[2],to a lesser extent
